Source: patent US20210069176A1, “Treating Autoimmune Disorders with Chloroquine and/or Hydroxychloroquine” (Attillaps Holdings, priority 2018, published 2021)

Legend:
Demodex mites = experiment: in vitro Demodex survival time assay
Description: FIG. 4 summarizes the activity of 10% chloroquine in water relative to a water control on activity against Demodex mites in an in vitro assay, with an LT50 of 31.6 hours for chloroquine compared to 44.8 hours for the water control, illustrating the inactivation effect of chloroquine on Demodex.
Example 4: In vitro efficacy and mite lifetimes: Relative efficacy of various formulations are evaluated with a demodex survival time experiments. FIG. 3 tabulates demodex survival time, expressed in terms of LT50 (time at which 50% of demodex mites are killed) and/or average minutes to death for various active agents.

[1] = dichlorvos 1%, one patient; cited from earlier work

| Compound | LT50 (time at which 50% of demodex mites are killed) (Demodex mites; 10% chloroquine in water, water control 44.8 hours, FIG. 4) [h] | activity against Demodex mites (Demodex mites; in vitro assay, FIG. 3) | remission of Papulopostular Rosacea (PPR) [1] |
| --- | --- | --- | --- |
| CCN(CC)CCCC(C)Nc1ccnc2cc(Cl)ccc12 (stereo not drawn) [chloroquine] | 31.6 | has activity against Demodex mites | – |
| COP(=O)(OC)OC=C(Cl)Cl [dichlorvos] | – | – | complete and continued remission |
